Test results: patent publication US20050203119A1, “Dihydropyridine compounds for treating or preventing metabolic disorders” (priority 2003, published 2005)

Experiments:
[1] = test system: C57BLKS/J db/db male mice; assay: Glucose reduction, Compound 1 in combination with rosiglitazone, db/db mice (Example 116, FIG. 2); format: in vivo, mouse; conditions: Compound 1 alone, 50 mg/kg
[2] = test system: NIDDM male mice (C57BLKS/J-m+/+Lepr db); assay: Glucose reduction in db/db mouse model, oral once daily for 7 days (Example 111); format: in vivo; conditions: for Serum Glucose % Pre-Treatment Baseline: 90 min post-dosing
Procedure: Non-insulin dependent diabetic mellitus (NIDDM) male mice (C57BLKS/J-m+/+Lepr db) weighing 60±5 g (12 weeks of age) provided by the Institute for Animal Reproduction (IAR, Japan) were used. […] The animals were housed in Individually Ventilated Cages Racks (IVC Racks, 36 Mini Isolator systems) throughout the experiment. Each APEC cage was autoclave sterilized and contained 4 mice and then maintained in a hygienic environment under controlled temperature (22-24° C.) and humidity (60-70%) with 12-hour light/dark cycles. The animals were given sterilized lab Chow and sterilized distilled water ad libitum.
Sterilized distilled water, ELISA Insulin Assay Kit (SPI bio, France), glucose (Merck), Glucose-HA assay kit (Wako, Japan), methylcellulose (Sigma), and troglitazone (BioMOL).
Compound 1 was suspended in 0.5% methylcellulose. Compound 1 at 100, 50 and 30 mg/kg as well as vehicle were administered to NIDDM male mice weighing 60±5 g (11-12 weeks of age), orally once daily for 7 consecutive days starting immediately after the first blood sampling (pre-treatment on day 1). Blood sampling was repeated at 90 minutes post-dosing on day 3 and day 7. The dosing volume was 10 ml/kg. Serum glucose level in the pre- and post-treatment periods were determined by enzymatic (Mutaratase-GOD) method. Post-treatment serum glucose value expressed in percentage of respective pre-treatment values were calculated and unpaired Student's t test was then applied for comparison between compound treated and vehicle control groups. Differences were considered significant at P<0.05. In addition, the liver weight and body weight were recorded to determine the ratio of liver to body weight.

[3] = test system: obese diabetic mice (C57BL/6 ob/ob); assay: Glucose reduction in ob/ob mouse model (Example 113); format: in vivo; conditions: 3.5 hours after administration
Procedure: Genetically mutated obese diabetic mice (C57BL/6 ob/ob) were purchased from the Jackson Laboratory (Bar Harbor, Me.). Eight weeks old male animals were employed in this study. After acclimation, mice were randomized for equivalent mean blood glucose on day 0 with eight mice each group, and received either vehicle or Compound 1 in 0.5% methylcellulose (ps400) by oral gavage once daily for 8 consecutive days. Plasma glucose was monitored 3.5 hours after administration of test compound on day 3 and 8.

Male SD rats = conditions: rat, in vivo
Procedure: Male SD rats weighing 350-420 g were anesthetized with 2-3% isoflurane. The femoral artery and vein were catheterized and connected to a mean arterial blood pressure (MAP) and heart rate (HR) monitor and a continuous intravenous infusion pump. Under anesthesia, MAP and HR were recorded 10-20 minutes prior to and during the continuous intravenous infusion of test compounds for 60-70 minutes. The infusion rate, 0.14-0.16 ml/kg/minute, was determined on the basis of vehicle tolerance. The infusion doses, 1.0-1.25 mg/kg/minute, were selected, depending upon the solubility of the compound and effects on MAP and HR of the positive control compounds at the lethal dose. The maximal effective dose or lethal dose of test compounds were determined accordingly.

[4] = test system: C57BLKS/J db/db male mice; assay: Glucose, insulin and triglyceride reduction in db/db mouse model, 10 days (Example 115); format: in vivo; conditions: orally once daily for 10 days
Procedure: Compound 1 was evaluated for its effect on plasma glucose, triglyceride and insulin in C57BLKS/J db/db male mice.
Compound 1 or vehicle was administered orally once daily for 10 consecutive days. Animals were divided into either vehicle or treatment groups (n=8 per group), and blood glucose, serum triglyceride and insulin were tested at the end of assay by Ani Lytic Inc (Baltimore, Md.).

## CCOC(=O)C1=C(COCCN)NC2=C(C(=O)CC(C)(C)C2)C1c1ccccc1Cl (centres unmarked) [Compound 1, 2-(2-amino-ethoxymethyl)-4-(2-chloro-phenyl)-7,7-dimethyl-5-oxo-1,4,5,6,7,8-Hexahydro-quinoline-3-carboxylic acid ethyl ester]
[1]
  blood glucose level, monotherapy: reduced glucose levels
[2]; Day 3, 30 mg/kg orally once daily
  Serum Glucose % Pre-Treatment Baseline: 96.7 ± 2.2 %
[2]; Day 3, 50 mg/kg orally once daily
  Serum Glucose % Pre-Treatment Baseline: 86.5 ± 3.5 %
[2]; Day 3, 100 mg/kg orally once daily
  Serum Glucose % Pre-Treatment Baseline: 85.6 ± 2.4 %
[2]; Day 7, 30 mg/kg orally once daily
  Serum Glucose % Pre-Treatment Baseline: 91.6 ± 3.7%
[2]; Day 7, 50 mg/kg orally once daily
  Serum Glucose % Pre-Treatment Baseline: 82.9 ± 4.4 %
[2]; Day 7, 100 mg/kg orally once daily
  Serum Glucose % Pre-Treatment Baseline: 80.9 ± 3.3 %
[2]; any treatment group (30, 50, 100 mg/kg, 7 days) vs vehicle control
  liver weight relative to body weight: No significant difference
[3]; day 3, 50 mg/kg oral gavage once daily
  percent normalized reduction of serum glucose vs vehicle: 30%
[3]; day 8, 50 mg/kg oral gavage once daily
  percent normalized reduction of serum glucose vs vehicle: 22.3%
Male SD rats
  Lethal Dose: >70 mg/kg
[4]
  % Reduction (relative to vehicle), Glucose: 14%
  % Reduction (relative to vehicle), Insulin: 19%
  % Reduction (relative to vehicle), Triglyceride: 17%
[4]; end of assay
  Glucose: 327.50 mg/dL
  Insulin: 11.32 ng/mL
  Triglyceride: 336.13 mg/dL
